Experimental data from patent US7196110B2, “N-substituted tricyclic 3-aminopyrazoles as inhibitors for the treatment of cell proliferative disorders” (Janssen Phamaceutica N.V., priority 2002, dated 2007).

Experiments:
T47D (breast) = assay: Anti-cell proliferation in tumor cells (14C-thymidine incorporation), T47D; format: cell-based; details: Homo sapiens, read-out: IC50 on cell proliferation, T47D
Description: (§1) The effect of compounds of the invention on cell proliferation in various tumor cells was tested based on incorporation of ^14C-thymidine into DNA of cells.
(§2) Similar to those described above in 3a, except that different cells, cell growth medium, and growth supplements were used. Human tumor cell lines derived from various human tissue origins (LoVo from colon, H460 from lung, T47D from breast, PC3 from prostate, A375 from melanoma, AsPC1 from pancreas) were obtained from the American Type Culture Collection (ATCC) and cultured under specified conditions required for each cell type, as provided by ATCC. Complete medium was obtained from Cellgro: Iscove's medium with 10% Fetal Bovine Serium (FBS) (Mediatech, Inc., Herndon, Va. 20171, Cat. No. 10-016-CV).
(§3) Tumor cells were seeded at approx. 3000–8000 cells per well in a volume of 100 μl of complete medium. Cells were grown for 24 hours in complete medium, and 1 μl of test compound was serially diluted in 100% DMSO and added to each well. For maximum growth control wells, only 1 μl of 100% DMSO was added. After 24 hours incubation, 20 μl of ^14C-thymidine master mix was added to each well and the ^14C-thymidine master mix was pepared according to the following regimen:
(§4) Cells were incubated for an additional 24 hours at 37° C. in medium containing test compound and ^14C-thymidine. Then, the reaction mixture was discarded and the plate was washed 2 times each with 200 μl PBS. Subsequently, each well on the plate was filled with 200 μl of PBS. The top of the plate was sealed with transparent plate sealer and white plate backing sealers were applied to the bottom of plates. The retained ^14C inside each well was measured using a Packard TopCount.
(§5) In order to test the potency of inhibition of the present compound, IC50 of an individual compound on the inhibition of tumor cell line proliferation was measured using the above procedure. As used herein, said IC50 refers to the concentration of the test compound at which the amount of tumor cell proliferation is reduced by one-half as compared to the maximum growth control wells without the compound.

[1] = molecular target: T1, PDGF-receptor beta enzyme comprising the tyrosine kinase domain (Homo sapiens, UniProt P09619); assay: Inhibition of PDGF-receptor kinase activity (cell-free, PLC1 peptide, 33P Flashplate); format: biochemical; details: PDGF-R kinase activity; for inhibition at 10 µM: compound at 10 uM, read-out: Percent Inhibition @ 10 uM; for IC50: read-out: IC50
T1 construct: from amino acid 545 to 1106 of GenBank Access NO: AAA36427
T1 sequence (P09619 545-1106): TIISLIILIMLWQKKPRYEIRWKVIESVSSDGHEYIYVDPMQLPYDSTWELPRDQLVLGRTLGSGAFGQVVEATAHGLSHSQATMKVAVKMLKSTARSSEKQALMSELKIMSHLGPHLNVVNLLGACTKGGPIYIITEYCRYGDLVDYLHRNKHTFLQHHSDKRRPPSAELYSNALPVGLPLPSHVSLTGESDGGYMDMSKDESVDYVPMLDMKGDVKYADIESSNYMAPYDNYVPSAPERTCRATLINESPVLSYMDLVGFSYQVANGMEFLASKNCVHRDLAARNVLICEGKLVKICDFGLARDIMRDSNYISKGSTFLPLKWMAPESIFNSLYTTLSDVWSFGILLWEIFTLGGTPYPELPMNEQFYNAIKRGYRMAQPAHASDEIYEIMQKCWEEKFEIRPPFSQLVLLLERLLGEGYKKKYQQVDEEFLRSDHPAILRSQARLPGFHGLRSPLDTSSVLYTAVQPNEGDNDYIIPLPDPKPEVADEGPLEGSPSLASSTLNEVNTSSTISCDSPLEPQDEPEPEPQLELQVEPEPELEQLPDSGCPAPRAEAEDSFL
Summary of the method: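 Recombinant kinase domain (aa 545–1106) phosphorylated a biotinylated PLC1 peptide with 5 μM ATP plus 33P-γ-ATP, in Tris pH 8, MgCl2, Na3VO4 and 1 mM DTT, for 60 min at 30 °C. Retained 33P was counted after washing. IC50 is the concentration halving activity versus no-inhibitor reactions.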

LoVo (colon) = assay: Anti-cell proliferation in tumor cells (14C-thymidine incorporation), LoVo; format: cell-based; details: Homo sapiens, read-out: IC50 on cell proliferation, LoVo
Description: as §1, §2, §3, §4, §5

A375 (melanoma) = assay: Anti-cell proliferation in tumor cells (14C-thymidine incorporation), A375; format: cell-based; details: Homo sapiens, A-375; read-out: IC50 on cell proliferation, A375
Description: as §1, §2, §3, §4, §5

c-Abl kinase = c-Abl kinase (Abelson murine leukemia virus, UniProt P00521); assay: Inhibition of c-Abl kinase activity (cell-free, Abl peptide substrate, 33P Flashplate); format: biochemical; details: IC50 for the c-Abl kinase activity
Sequence of c-Abl kinase (P00521 115-385): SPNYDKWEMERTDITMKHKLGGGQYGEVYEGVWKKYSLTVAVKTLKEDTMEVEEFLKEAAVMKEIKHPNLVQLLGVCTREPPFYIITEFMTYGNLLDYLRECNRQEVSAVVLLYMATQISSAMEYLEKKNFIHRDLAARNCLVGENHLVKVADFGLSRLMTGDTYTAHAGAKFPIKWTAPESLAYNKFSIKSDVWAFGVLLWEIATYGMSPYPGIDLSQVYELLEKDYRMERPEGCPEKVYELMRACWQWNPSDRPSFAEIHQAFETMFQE

IC50 (T47D (breast)) [nM]	IC50 (LoVo (colon)) [nM]	IC50 (A375 (melanoma)) [nM]	Compound	inhibition at 10 µM [1] [%]	IC50 [1] [nM]	IC50 (c-Abl kinase) [nM]
30	–	–	COc1cc2c(cc1OC)-c1n[nH]c(Nc3cccc(Cl)c3)c1C2 [Compound 4, (3-Chloro-phenyl)-(6,7-dimethoxy-2,4-dihydro-indeno[1,2-c]pyrazol-3-yl)-amine]	90	–	–
–	71	4	COc1cc2c(cc1OC)-c1c(c(Nc3cccc(Br)c3)nn1C)C2 [Compound 91, (3-Bromo-phenyl)-(6,7-dimethoxy-1-methyl-1,4-dihydro-indeno[1,2-c]pyrazol-3-yl)-amine]	76	2970	–
–	–	–	CCOc1cc2c(cc1OCC(O)CN1CCCC1)-c1n[nH]c(Nc3cccc(F)c3)c1C2 (stereo not drawn) [Compound 460, 1-[6-Ethoxy-3-(3-fluoro-phenylamino)-2,4-dihydro-indeno[1,2-c]pyrazol-7-yloxy]-3-pyrrolidin-1-yl-propan-2-ol]	97.5	4.27	4
–	–	–	COCCCOc1ccc2c(c1)Cc1c-2n[nH]c1Nc1ccccc1 [Compound 140, [6-(3-Methoxy-propoxy)-2,4-dihydro-indeno[1,2-c]pyrazol-3-yl]-phenyl-amine]	56.5	13.7	1410
–	–	–	COCCCOc1cc2c(cc1OCCCOC)-c1n[nH]c(Nc3cccc(OC)c3)c1C2 [Compound 284, [6,7-Bis-(3-methoxy-propoxy)-2,4-dihydroindeno[1,2-c]pyrazol-3-yl]-(3-methoxy-phenyl)-amine]	84.6	5.09	69
–	–	–	COc1cccc(Nc2[nH]nc3c2Cc2cc(OCCCO)c(OC)cc2-3)c1 [Compound 266, 3-[7-Mehoxy-3-(3-methoxy-phenylamino)-2,4-dihydro-indeno[1,2-c]pyrazol-6-yloxy]-propan-1-ol]	110	1.53	15
–	–	–	Clc1cccc(Nc2[nH]nc3c2Cc2cc4c(cc2-3)OCO4)c1 [Compound 128, (3-Chloro-phenyl)-(2,9-dihydro-5,7-dioxa-2,3-diaza-cyclopenta[a]-s-indacen-1-yl)-amine]	88	59.6	313
–	–	–	COc1cc2c(cc1OC)-c1c(c(Nc3cccc(F)c3)nn1C(=O)CCC(=O)O)C2 [Compound 466, 4-[3-(3-Fluoro-phenylamino)-6,7-dimethoxy-4H-indeno[1,2-c]pyrazol-1-yl]-4-oxo-butyric acid]	96	31.1	191
–	–	–	COCCCOc1cc2c(cc1OCCCOC)-c1n[nH]c(Nc3cccc(F)c3)c1C2 [Compound 283, [6,7-Bis-(3-methoxy-propoxy)-2,4-dihydroindeno[1,2-c]pyrazol-3-yl]-(3-fluoro-phenyl)-amine]	86.5	4.36	340
–	–	–	COc1cc2c(cc1OCCCO)Cc1c-2n[nH]c1NCc1ccccc1F [Compound 386, 3-[3-(2-Fluoro-benzylamino)-7-methoxy-2,4-dihydro-indeno[1,2-c]pyrazol-6-yloxy]-propan-1-ol]	95.5	11	20
–	–	–	CCOc1cc2c(cc1OCCCO)Cc1c-2n[nH]c1Nc1cccnc1 [Compound 383, 3-[7-Ethoxy-3-(pyridin-3-ylamino)-2,4-dihydro-indeno[1,2-c]pyrazol-6-yloxy]-propan-1-ol]	93	25.3	183
–	–	–	COc1cc2c(cc1OC)-c1n[nH]c(Nc3ccccc3)c1C2 [Compound 2, (6,7-Dimethoxy-2,4-dihydro-indeno[1,2-c]pyrazol-3-yl)-phenyl-amine]	91	6	11
–	–	–	CCOc1cccc(Nc2[nH]nc3c2Cc2cc(OCC)c(OCC(O)CN4CCCC4)cc2-3)c1 (stereo not drawn) [Compound 463, 1-[6-Ethoxy-3-(3-ethoxy-phenylamino)-2,4-dihydro-indeno[1,2-c]pyrazol-7-yloxy]-3-pyrrolidin-1-yl-propan-2-ol]	98.5	11	8
–	–	–	COc1cc2c(cc1OCCCN1CCOCC1)Cc1c-2n[nH]c1Nc1ccc(F)c(Cl)c1 [Compound 179, (3-Chloro-4-fluoro-phenyl)-[7-methoxy-6-(3-morpholin-4-yl-propoxy)-2,4-dihydro-indeno[1,2-c]pyrazol-3-yl]-amine]	92	71.2	870
–	–	–	COc1cc2c(cc1OCC(O)CN1CCCC1)Cc1c-2n[nH]c1NCc1ccccc1Cl (stereo not drawn) [Compound 396, 1-[3-(2-Chloro-benzylamino)-7-methoxy-2,4-dihydro-indeno[1,2-c]pyrazol-6-yloxy]-3-pyrrolidin-1-yl-propan-2-ol]	99.5	5.13	2
–	–	–	COc1ccc2c(c1)-c1n[nH]c(Nc3cccc(F)c3)c1C2 [Compound 172, (3-Fluoro-phenyl)-(7-methoxy-2,4-dihydro-indeno[1,2-c]pyrazol-3-yl)-amine]	55	13.3	84
–	–	–	CCc1cccc(Nc2[nH]nc3c2Cc2cc(OC)c(OC)cc2-3)c1 [Compound 209, (6,7-Dimethoxy-2,4-dihydro-indeno[1,2-c]pyrazol-3-yl)-(3-ethyl-phenyl)-amine]	99	32.8	7
–	–	–	COc1cc2c(cc1OCC(O)CN1CCCC1)Cc1c-2n[nH]c1NCc1c(F)cccc1F (stereo not drawn) [Compound 391, 1-[3-(2,6-Difluoro-benzylamino)-7-methoxy-2,4-dihydro-indeno[1,2-c]pyrazol-6-yloxy]-3-pyrrolidin-1-yl-propan-2-ol]	99	6.8	14
–	–	–	COc1cc2c(cc1OC)-c1n[nH]c(Nc3cccc(CO)c3)c1C2 [Compound 36, [3-(6,7-Dimethoxy-2,4-dihydro-indeno[1,2-c]pyrazol-3-ylamino)-phenyl]-methanol]	85	33	64
–	–	–	COc1cc2c(cc1Br)Cc1c-2n[nH]c1Nc1cccc(F)c1 [Compound 369, (6-Bromo-7-methoxy-2,4-dihydro-indeno[1,2-c]pyrazol-3-yl)-(3-fluoro-phenyl)-amine]	100	18.7	47
–	–	–	COc1cc2c(cc1OCC(O)CN1CCCC1)Cc1c-2n[nH]c1Nc1cccc(F)c1 (stereo not drawn) [Compound 269, 1-[3-(3-Fluoro-phenylamino)-7-methoxy-2,4-dihydro-indeno[1,2-c]pyrazol-6-yloxy]-3-pyrrolidin-1-yl-propan-2-ol]	94	0.591	101
–	–	–	COc1cc2c(cc1OCCCN1CCOCC1)Cc1c-2n[nH]c1Nc1cccc(Cl)c1 [Compound 132, (3-Chloro-phenyl)-[7-methoxy-6-(3-morpholin-4-yl-propoxy)-2,4-dihydro-indeno[1,2-c]pyrazol-3-yl]-amine]	79	5.37	665
–	–	–	Fc1ccc2c(c1)Cc1c-2n[nH]c1Nc1ccc(F)c(Cl)c1 [Compound 202, (3-Chloro-4-fluoro-phenyl)-(6-fluoro-2,4-dihydro-indeno[1,2-c]pyrazol-3-yl)-amine]	77	12.4	2650
–	–	–	OCC(O)COc1cccc2c1Cc1c-2n[nH]c1Nc1cccc(F)c1 (stereo not drawn) [Compound 469, 3-[3-(3-Fluoro-phenylamino)-2,4-dihydro-indeno[1,2-c]pyrazol-5-yloxy]-propane-1,2-diol]	96	160	27
–	–	–	CCOc1cc2c(cc1OCC)C(C)c1c-2n[nH]c1Nc1cccc(OC)c1 (stereo not drawn) [Compound 348, (6,7-Diethoxy-4-methyl-2,4-dihydro-indeno[1,2-c]pyrazol-3-yl)-(3-methoxy-phenyl)-amine]	97.5	25.3	11
–	–	–	CCOc1cc2c(cc1OCCCO)Cc1c-2n[nH]c1Nc1cccc(F)c1 [Compound 382, 3-[7-Ethoxy-3-(3-fluoro-phenylamino)-2,4-dihydro-indeno[1,2-c]pyrazol-6-yloxy]-propan-1-ol]	100	11.9	19
